Measured values from article PMC10041525, “New Dual Inhibitors of Bacterial Topoisomerases with Broad-Spectrum Antibacterial Activity and In Vivo Efficacy against Vancomycin-Intermediate Staphylococcus aureus” (Journal of Medicinal Chemistry, 2023).
“And” between values parts separate entries of the source, which are not always exact repeats. Identical values can stand only once.

Experiments:
Assay type in all cases: cell-based
[1] = test system: 100 A. baumannii strains (50 MDR, 50 non-MDR); experiment: MIC broth microdilution at IHMA Europe, panel of 100 strains
[2] = test system: P. aeruginosa ATCC 27853; experiment: IHMA QC MIC
[3] = test system: E. coli ATCC 25922; experiment: IHMA QC MIC
[4] = test system: E. coli ATCC 35218; experiment: IHMA QC MIC
Method: The panel of Hungarian clinical isolates and controls measured following the same method as detailed above, and albeit measurements were carried out in 384-well microtiter plates (Corning Inc.).

Q: Which MIC ([1]; A. baumannii IHMA 2195460, Italy 2020, MDR) does the source give for “piperacillin/tazobactam [Piperacillin Tazobactam]” here?
A: >128 µg/mL

Q: What about the MIC ([1]; A. baumannii IHMA 2196914, South Africa 2020, MDR) of the same substance?
A: >128 µg/mL

Q: What about the MIC ([1]; A. baumannii IHMA 2196959, South Africa 2020, MDR) of the same substance?
A: >128 µg/mL

Q: What about the MIC ([1]; A. baumannii IHMA 2203763, Spain 2020, MDR) of the same substance?
A: >128 µg/mL

Q: And the MIC ([1]; A. baumannii IHMA 2205144, Korea, South 2020, MDR)?
A: >128 µg/mL

Q: And the MIC ([1]; A. baumannii IHMA 2206459, Taiwan 2020, MDR)?
A: >128 µg/mL

Q: What about the MIC ([1]; A. baumannii IHMA 2206507, Taiwan 2020, Non-MDR) of the same substance?
A: ≤0.25 µg/mL

Q: And the MIC ([1]; A. baumannii IHMA 2212575, Hungary 2020, Non-MDR)?
A: 4 µg/mL

Q: And the MIC ([1]; A. baumannii IHMA 2215307, Hong Kong 2020, Non-MDR)?
A: 1 µg/mL

Q: What about the MIC ([1]; A. baumannii IHMA 2216586, Taiwan 2020, MDR) of the same substance?
A: >128 µg/mL

Q: What about the MIC ([1]; A. baumannii IHMA 2223200, Colombia 2020, Non-MDR) of the same substance?
A: ≤0.25 µg/mL

Q: And the MIC ([1]; A. baumannii IHMA 2224017, Panama 2020, MDR)?
A: >128 µg/mL

Q: And the MIC ([1]; A. baumannii IHMA 2224303, Panama 2020, Non-MDR)?
A: 16 µg/mL

Q: And the MIC ([1]; A. baumannii IHMA 2231797, Greece 2020, MDR)?
A: >128 µg/mL

Q: And the MIC ([1]; A. baumannii IHMA 2233099, Guatemala 2020, MDR)?
A: >128 µg/mL

Q: And the MIC ([1]; A. baumannii IHMA 2233430, Kazakhstan 2020, MDR)?
A: >128 µg/mL

Q: And the MIC ([1]; A. baumannii IHMA 2233548, Kazakhstan 2020, Non-MDR)?
A: ≤0.25 µg/mL

Q: What about the MIC ([1]; A. baumannii IHMA 2238964, Thailand 2020, MDR) of the same substance?
A: >128 µg/mL

Q: What about the MIC ([1]; A. baumannii IHMA 2239052, Thailand 2020, Non-MDR) of the same substance?
A: ≤0.25 µg/mL

Q: And the MIC ([1]; A. baumannii IHMA 2261047, Belgium 2020, MDR)?
A: >128 µg/mL

Q: What about the MIC ([1]; A. baumannii IHMA 2261633, Canada 2020, Non-MDR) of the same substance?
A: ≤0.25 µg/mL

Q: What about the MIC ([1]; A. baumannii IHMA 2274234, South Africa 2020, MDR) of the same substance?
A: >128 µg/mL

Q: And the MIC ([1]; A. baumannii IHMA 2274364, South Africa 2020, MDR)?
A: >128 µg/mL

Q: What about the MIC ([1]; A. baumannii IHMA 2275237, Chile 2020, Non-MDR) of the same substance?
A: ≤0.25 µg/mL

Q: What about the MIC ([1]; A. baumannii IHMA 2275751, Jordan 2020, MDR) of the same substance?
A: >128 µg/mL

Q: And the MIC ([1]; A. baumannii IHMA 2316205, United States 2020, MDR)?
A: >128 µg/mL

Q: And the “MAX (maximum MIC; all strains inhibited)” value ([1]; MDR n = 50)?
A: >128 µg/mL

Q: What about the “MIC50” value ([1]; MDR n = 50) of the same substance?
A: >128 µg/mL

Q: And the “MIC90” value ([1]; MDR n = 50)?
A: >128 µg/mL

Q: And the “MIN (minimum MIC)” value ([1]; MDR n = 50)?
A: >128 µg/mL

Q: And the “Percentage I” value ([1]; MDR n = 50)?
A: 0%

Q: And the “Percentage R” value ([1]; MDR n = 50)?
A: 100%

Q: And the “Percentage S” value ([1]; MDR n = 50)?
A: 0%

Q: What about the “Cumulative % at MIC” value ([1]; MDR n=50, MIC >128 µg/mL) of the same substance?
A: 100%

Q: And the “No. of isolates at MIC” value ([1]; MDR n=50, MIC >128 µg/mL)?
A: 50

Q: What about the “MAX (maximum MIC; all strains inhibited)” value ([1]; all isolates n = 100) of the same substance?
A: >128 µg/mL

Q: And the “MIC50” value ([1]; all isolates n = 100)?
A: 16 µg/mL

Q: What about the “MIC90” value ([1]; all isolates n = 100) of the same substance?
A: >128 µg/mL

Q: What about the “MIN (minimum MIC)” value ([1]; all isolates n = 100) of the same substance?
A: ≤0.25 µg/mL

Q: And the “Percentage I” value ([1]; all n = 100, CLSI breakpoints)?
A: 0%

Q: What about the “Percentage R” value ([1]; all n = 100, CLSI breakpoints) of the same substance?
A: 50%

Q: What about the “Percentage S” value ([1]; all n = 100, CLSI breakpoints) of the same substance?
A: 50%

Q: And the “Cumulative % at MIC” value ([1]; all n=100, MIC 0.5 µg/mL)?
A: 36%

Q: What about the “No. of isolates at MIC” value ([1]; all n=100, MIC 0.5 µg/mL) of the same substance?
A: 1

Q: And the “Cumulative % at MIC” value ([1]; all n=100, MIC 1 µg/mL)?
A: 37%

Q: What about the “No. of isolates at MIC” value ([1]; all n=100, MIC 1 µg/mL) of the same substance?
A: 1

Q: And the “Cumulative % at MIC” value ([1]; all n=100, MIC 2 µg/mL)?
A: 39%

Q: What about the “No. of isolates at MIC” value ([1]; all n=100, MIC 2 µg/mL) of the same substance?
A: 2

Q: And the “Cumulative % at MIC” value ([1]; all n=100, MIC […] µg/mL)?
A: 50%

Q: And the “No. of isolates at MIC” value ([1]; all n=100, MIC […] µg/mL)?
A: 3

Q: And the “Cumulative % at MIC” value ([1]; all n=100, MIC >128 µg/mL)?
A: 100%

Q: What about the “No. of isolates at MIC” value ([1]; all n=100, MIC >128 µg/mL) of the same substance?
A: 50

Q: What about the “Cumulative % at MIC” value ([1]; all n=100, MIC ≤[…]) of the same substance?
A: 35%

Q: And the “No. of isolates at MIC” value ([1]; all n=100, MIC ≤[…])?
A: 35

Q: And the “MAX (maximum MIC)” value ([1]; non-MDR n = 50)?
A: 16 µg/mL

Q: What about the “MIC50” value ([1]; non-MDR n = 50) of the same substance?
A: ≤0.25 µg/mL

Q: What about the “MIC90” value ([1]; non-MDR n = 50) of the same substance?
A: 4 µg/mL

Q: And the “MIN (minimum MIC)” value ([1]; non-MDR n = 50)?
A: ≤0.25 µg/mL

Q: And the “Percentage I” value ([1]; non-MDR n = 50)?
A: 0%

Q: What about the “Percentage R” value ([1]; non-MDR n = 50) of the same substance?
A: 0%

Q: And the “Percentage S” value ([1]; non-MDR n = 50)?
A: 100%

Q: What about the “Cumulative % at MIC” value ([1]; non-MDR n=50, MIC 0.5 µg/mL) of the same substance?
A: 72%

Q: What about the “No. of isolates at MIC” value ([1]; non-MDR n=50, MIC 0.5 µg/mL) of the same substance?
A: 1

Q: And the “Cumulative % at MIC” value ([1]; non-MDR n=50, MIC 1 µg/mL)?
A: 74%

Q: What about the “No. of isolates at MIC” value ([1]; non-MDR n=50, MIC 1 µg/mL) of the same substance?
A: 1

Q: What about the “Cumulative % at MIC” value ([1]; non-MDR n=50, MIC 2 µg/mL) of the same substance?
A: 78%

Q: And the “No. of isolates at MIC” value ([1]; non-MDR n=50, MIC 2 µg/mL)?
A: 2

Q: What about the “Cumulative % at MIC” value ([1]; non-MDR n=50, MIC […] µg/mL) of the same substance?
A: 100%

Q: And the “No. of isolates at MIC” value ([1]; non-MDR n=50, MIC […] µg/mL)?
A: 3

Q: And the “Cumulative % at MIC” value ([1]; non-MDR n=50, MIC ≤[…])?
A: 70%

Q: And the “No. of isolates at MIC” value ([1]; non-MDR n=50, MIC ≤[…])?
A: 35

Q: What about the “MIC (QC, repeated tests)” value [2] of the same substance?
A: 4 µg/mL and 8 µg/mL

Q: What about the “MIC (QC, repeated tests)” value [3] of the same substance?
A: 2 µg/mL

Q: What about the “MIC (QC, repeated tests)” value [4] of the same substance?
A: 1 µg/mL
